We go through one substance from patent publication US5856305A, “Peptides endowed with antiinflammatory activity” (Italfarmaco S.P.A., priority 1994, dated 1999).

The assay has as its system adjuvant arthritis. The assay is described as follows: adjuvant arthritis test. In kind it is in vivo, Wistar rats. Conditions: for Clinical scores (± S.E.): 50 μg/rat peptide in PBS intradermally at day 4, 5 and 6 after M. tuberculosis, score 0 to 18; for Incidence of arthritis (arthritic rats/total rats): 50 μg/rat at day 4, 5 and 6. Here is the method:
The peptide of the present invention is useful in the treatment of inflammatory pathologies of different kinds and origins, as it is shown by pharmacological test (adjuvant arthritis test) as follows.
15 Wistar rats (C. River; weight 130-140 g) and anaesthetized with CO2, were intradermically administered (injection at the base of the tie) with 0.1 ml of a suspension of 10 mg/ml of heat-inactivated M. tuberculosis (Strain C, DT and PN; Central Vet. Labs--GB), in sterile paraffin oil. The rats were divided in 3 groups of 5 animals each, and at day 4, 5 and 6 from the above treatment, following the same method for inducing arthritis, they were administered with 50 μg/rat dose of the peptide I in 100 μl of PBS for the first group, with PBS only for the second group, while the third group was not treated. The course of the arthritis was monitored according to the following scheme of clinical scores:
The scores range from 0 to 4 for each paw; furthermore one additional score is assigned if there are nodules on the tie, and another futher score is assigned if ears are involved, thereby the score is 0 at minimum and 18 at maximum.

In the case of H-AKVNIKPLEDKILVQANEAETTTAS-OH [1-25], the “Clinical scores (± S.E.)” value is, setting by setting: (day 7) 0; (day 8) 0; (day 10) 0.6 ± 0.6; (day 11) 3.8 ± 0.4; (day 12) 10.0 ± 0.7; (day 13) 12.6 ± 0.6. In addition, the “Incidence of arthritis (arthritic rats/total rats)” value (day 10) is given as 1/5, the “Incidence of arthritis (arthritic rats/total rats)” value (day 11) is 5/5 and the “Incidence of arthritis (arthritic rats/total rats)” value (day 12) is listed as 5/5.
